IC50 data for 41 molecules are collected here from ChEMBL document CHEMBL1156312, “Comparison of the antiplasmodial and falcipain-2 inhibitory activity of beta-amino alcohol thiolactone-chalcone and isatin-chalcone hybrids” (Bioorg Med Chem Lett, 2010).

In one test the test system is Plasmodium falciparum. As to the kind of experiment: Antimicrobial activity against chloroquine-resistant Plasmodium falciparum W2. The test is classed as functional, organism-based.
Test [1] can be described thus: Inhibition of recombinant Plasmodium falciparum falcipain-2.

Some results are limits rather than exact numbers.

Regarding `COc1ccc(/C=C/C(=O)c2ccccc2OCc2cn(CC(O)CN3C(=O)C(=O)c4cc(Cl)ccc43)nn2)cc1` (stereo not given), the values for the IC50 (in the test with Plasmodium falciparum; in test [1]) were 16 µM and 7.79 µM, respectively.
Regarding `COc1ccc(/C=C/C(=O)c2cccc(OCc3cn(CC(O)CN4C(=O)C(=O)c5cc(Cl)ccc54)nn3)c2)cc1` (stereo not given), the IC50 (in general, the concentration that inhibits the measured activity by half) was determined as 9.91 µM with Plasmodium falciparum and 3.57 µM in test [1].
Regarding `COc1ccc(/C=C/C(=O)c2cccc(OCc3cn(CC(O)CN4C(=O)C(=O)c5cc(Cl)ccc54)nn3)c2)c(OC)c1` (stereo not given), the values for the IC50 (with Plasmodium falciparum; in test [1]) were 10.6 µM and 2.95 µM, respectively.
Regarding `CCN(CC)CCCC(C)Nc1ccnc2cc(Cl)ccc12` (stereo not given) [CHLOROQUINE], in test [1], the IC50 is 0.0694 µM.
As for `COc1ccc(C(=O)/C=C/c2ccccc2OCc2cn(CC(O)COC3=C(C)C(=O)SC3C)nn2)c(OC)c1` (stereo not given), the values for the IC50 (in the test on Plasmodium falciparum; in test [1]) were greater than 100 µM and 2.08 µM, respectively.
`COc1ccc(/C=C/C(=O)c2cccc(OCc3cn(CC(O)COC4=C(C)C(=O)SC4C)nn3)c2)c(OC)c1` (stereo not given): the values for the IC50 (in the test with Plasmodium falciparum; in test [1]) were greater than 100 µM and 3.51 µM, respectively.
As for `COc1ccc(/C=C/C(=O)c2ccc(OCc3cn(CC(O)CN4C(=O)C(=O)c5cc(Cl)ccc54)nn3)cc2)c(OC)c1` (stereo not given), the IC50 in the test with Plasmodium falciparum amounted to 18.3 µM; in test [1], 14.5 µM.
For the molecule `COc1ccc(/C=C/C(=O)c2ccc(OCc3cn(CC(O)COC4=C(C)C(=O)SC4C)nn3)cc2)c(OC)c1OC` (stereo not given), the results for the IC50 (in the test on Plasmodium falciparum; in test [1]) were greater than 100 µM and 0.81 µM, respectively.
Turning to `COc1ccc(C(=O)/C=C/c2ccccc2OCc2cn(CC(O)COC3=C(C)C(=O)SC3C)nn2)c(OC)c1OC` (stereo not given), the IC50 is greater than 100 µM in the test on Plasmodium falciparum and 1.14 µM in test [1].
As to `COc1ccc(/C=C/C(=O)c2ccccc2OCc2cn(CC(O)CN3C(=O)C(=O)c4cc(Cl)ccc43)nn2)c(OC)c1` (stereo not given), the IC50 with Plasmodium falciparum came out at 15 µM; in test [1], 2.09 µM.
The matching figures for `COc1ccc(C(=O)/C=C/c2ccccc2OCc2cn(CC(O)CN3C(=O)C(=O)c4cc(Cl)ccc43)nn2)cc1` (stereo not given): 25.4 µM and greater than 20 µM.
The matching figures for `COc1ccc(/C=C/C(=O)c2ccc(OCc3cn(CC(O)COC4=C(C)C(=O)SC4C)nn3)cc2)c(OC)c1` (stereo not given): 28.5 µM and 3.1 µM.
As to `COc1ccc(/C=C/C(=O)c2cccc(OCc3cn(CC(O)COC4=C(C)C(=O)SC4C)nn3)c2)c(OC)c1OC` (stereo not given), the IC50 was greater than 100 µM with Plasmodium falciparum and 0.68 µM in test [1].
Take `COc1ccc(C(=O)/C=C/c2ccc(OCc3cn(CC(O)CN4C(=O)C(=O)c5cc(Cl)ccc54)nn3)cc2)c(OC)c1OC` (stereo not given): the IC50 with Plasmodium falciparum is 16.6 µM; in test [1] it was 11 µM.
Consider `COc1ccc(C(=O)/C=C/c2ccc(OCc3cn(CC(O)COC4=C(C)C(=O)SC4C)nn3)cc2)c(OC)c1` (stereo not given), for which the values for the IC50 (in the test with Plasmodium falciparum; in test [1]) were greater than 100 µM and 1.54 µM, respectively.
Turning to `COc1ccc(C(=O)/C=C/c2ccc(OCc3cn(CC(O)CN4C(=O)C(=O)c5cc(Cl)ccc54)nn3)cc2)cc1` (stereo not given), the results for the IC50 (with Plasmodium falciparum; in test [1]) were 10.8 µM and 10.6 µM, respectively.
For `CC1=C(OCC(O)CN=[N+]=[N-])C(C)SC1=O` (stereo not given), the half-maximal inhibitory concentration (IC50) was greater than 100 µM in the test on Plasmodium falciparum and greater than 20 µM in test [1].
Consider `COc1ccc(/C=C/C(=O)c2ccccc2OCc2cn(CC(O)COC3=C(C)C(=O)SC3C)nn2)cc1` (stereo not given), for which the IC50 was greater than 100 µM with Plasmodium falciparum and 2.64 µM in test [1].
Take `COc1ccc(C(=O)/C=C/c2ccccc2OCc2cn(CC(O)CN3C(=O)C(=O)c4cc(Cl)ccc43)nn2)c(OC)c1OC` (stereo not given): the IC50 with Plasmodium falciparum came to 90.5 µM; in test [1] it was 6.1 µM.
The matching figures for `COc1ccc(C(=O)/C=C/c2ccc(OCc3cn(CC(O)COC4=C(C)C(=O)SC4C)nn3)cc2)cc1` (stereo not given): greater than 100 µM and 3.12 µM.
Take `COc1ccc(C(=O)/C=C/c2cccc(OCc3cn(CC(O)CN4C(=O)C(=O)c5cc(Cl)ccc54)nn3)c2)cc1` (stereo not given): the IC50 in the test on Plasmodium falciparum amounted to 10.3 µM; in test [1] it was 5.75 µM.
For the molecule `COc1ccc(/C=C/C(=O)c2ccc(OCc3cn(CC(O)CN4C(=O)C(=O)c5cc(Cl)ccc54)nn3)cc2)cc1` (stereo not given), the half-maximal inhibitory concentration (IC50) amounted to 15.9 µM with Plasmodium falciparum and 14.9 µM in test [1].
The matching figures for `COc1ccc(C(=O)/C=C/c2cccc(OCc3cn(CC(O)COC4=C(C)C(=O)SC4C)nn3)c2)c(OC)c1` (stereo not given): greater than 100 µM and 1.64 µM.
For `COc1ccc(C(=O)/C=C/c2ccccc2OCc2cn(CC(O)CN3C(=O)C(=O)c4cc(Cl)ccc43)nn2)c(OC)c1` (stereo not given), the IC50 in the test with Plasmodium falciparum was 15.6 µM; in test [1], greater than 20 µM.
In the case of `COc1ccc(/C=C/C(=O)c2cccc(OCc3cn(CC(O)COC4=C(C)C(=O)SC4C)nn3)c2)cc1` (stereo not given), the IC50 in the test with Plasmodium falciparum was greater than 100 µM; in test [1], 3.69 µM.
Take `COc1ccc(/C=C/C(=O)c2ccc(OCc3cn(CC(O)CN4C(=O)C(=O)c5cc(Cl)ccc54)nn3)cc2)c(OC)c1OC` (stereo not given): the values for the IC50 (with Plasmodium falciparum; in test [1]) were 25.1 µM and greater than 20 µM, respectively.
The matching figures for `COc1ccc(C(=O)/C=C/c2cccc(OCc3cn(CC(O)CN4C(=O)C(=O)c5cc(Cl)ccc54)nn3)c2)c(OC)c1OC` (stereo not given): 11.5 µM and 2.18 µM.
`COc1ccc(/C=C/C(=O)c2ccc(OCc3cn(CC(O)COC4=C(C)C(=O)SC4C)nn3)cc2)cc1` (stereo not given): the IC50 was greater than 100 µM in the test with Plasmodium falciparum and 6.08 µM in test [1].
The matching figures for `COc1ccc(C(=O)/C=C/c2cccc(OCc3cn(CC(O)COC4=C(C)C(=O)SC4C)nn3)c2)c(OC)c1OC` (stereo not given): greater than 100 µM and 2 µM.
Turning to `COc1ccc(/C=C/C(=O)c2cccc(OCc3cn(CC(O)CN4C(=O)C(=O)c5cc(Cl)ccc54)nn3)c2)c(OC)c1OC` (stereo not given), the figures for the IC50 (in the test with Plasmodium falciparum; in test [1]) were 16.7 µM and 2.57 µM, respectively.
As for `COc1ccc(C(=O)/C=C/c2cccc(OCc3cn(CC(O)COC4=C(C)C(=O)SC4C)nn3)c2)cc1` (stereo not given), the IC50 in the test with Plasmodium falciparum was greater than 100 µM; in test [1], 2.43 µM.
The matching figures for `CC1=C(O)SC(C)C1=O` (stereo not given) [THIOLACTONE]: greater than 100 µM and greater than 20 µM.
On to `COc1ccc(C(=O)/C=C/c2ccc(OCc3cn(CC(O)CN4C(=O)C(=O)c5cc(Cl)ccc54)nn3)cc2)c(OC)c1` (stereo not given), for which the IC50 in test [1] was 9.73 µM.
Regarding `O=C1Nc2ccccc2C1=O` [ISATIN], the values for the half-inhibitory concentration (IC50) (in the test on Plasmodium falciparum; in test [1]) were greater than 100 µM and greater than 20 µM, respectively.
For the molecule `COc1ccc(/C=C/C(=O)c2ccccc2OCc2cn(CC(O)CN3C(=O)C(=O)c4cc(Cl)ccc43)nn2)c(OC)c1OC` (stereo not given), the IC50 stood at 15.3 µM in the test with Plasmodium falciparum and 6.21 µM in test [1].
In the case of `COc1ccc(C(=O)/C=C/c2ccccc2OCc2cn(CC(O)COC3=C(C)C(=O)SC3C)nn2)cc1` (stereo not given), the IC50 is greater than 100 µM with Plasmodium falciparum and 2.31 µM in test [1].
Consider `COc1ccc(C(=O)/C=C/c2ccc(OCc3cn(CC(O)COC4=C(C)C(=O)SC4C)nn3)cc2)c(OC)c1OC` (stereo not given), for which the IC50 with Plasmodium falciparum is greater than 100 µM; in test [1], 5.04 µM.
In the case of `C=C/C(C)=C/[C@@]1(C)SC(=O)C(C)=C1O` [THIOLACTOMYCIN], the IC50 in the test with Plasmodium falciparum is greater than 100 µM; in test [1], greater than 20 µM.
For the molecule `COc1ccc(/C=C/C(=O)c2ccccc2OCc2cn(CC(O)COC3=C(C)C(=O)SC3C)nn2)c(OC)c1` (stereo not given), the half-maximal inhibitory concentration (IC50) in the test with Plasmodium falciparum was greater than 100 µM; in test [1] it was 2.14 µM.
The matching figures for `COc1ccc(C(=O)/C=C/c2cccc(OCc3cn(CC(O)CN4C(=O)C(=O)c5cc(Cl)ccc54)nn3)c2)c(OC)c1` (stereo not given): 6.8 µM and 3.17 µM.
As for `COC1(OC)C(=O)N(CC(O)CN=[N+]=[N-])c2ccc(Cl)cc21` (stereo not given), the results for the IC50 (in the test on Plasmodium falciparum; in test [1]) were greater than 100 µM and greater than 20 µM, respectively.
